Target: T1, FSHR (Homo sapiens, UniProt P23945)
T1 construct: purchased Promega (in-house HiBiT-GPCR construct library, NanoBRET)
T1 sequence (P23945 18-695): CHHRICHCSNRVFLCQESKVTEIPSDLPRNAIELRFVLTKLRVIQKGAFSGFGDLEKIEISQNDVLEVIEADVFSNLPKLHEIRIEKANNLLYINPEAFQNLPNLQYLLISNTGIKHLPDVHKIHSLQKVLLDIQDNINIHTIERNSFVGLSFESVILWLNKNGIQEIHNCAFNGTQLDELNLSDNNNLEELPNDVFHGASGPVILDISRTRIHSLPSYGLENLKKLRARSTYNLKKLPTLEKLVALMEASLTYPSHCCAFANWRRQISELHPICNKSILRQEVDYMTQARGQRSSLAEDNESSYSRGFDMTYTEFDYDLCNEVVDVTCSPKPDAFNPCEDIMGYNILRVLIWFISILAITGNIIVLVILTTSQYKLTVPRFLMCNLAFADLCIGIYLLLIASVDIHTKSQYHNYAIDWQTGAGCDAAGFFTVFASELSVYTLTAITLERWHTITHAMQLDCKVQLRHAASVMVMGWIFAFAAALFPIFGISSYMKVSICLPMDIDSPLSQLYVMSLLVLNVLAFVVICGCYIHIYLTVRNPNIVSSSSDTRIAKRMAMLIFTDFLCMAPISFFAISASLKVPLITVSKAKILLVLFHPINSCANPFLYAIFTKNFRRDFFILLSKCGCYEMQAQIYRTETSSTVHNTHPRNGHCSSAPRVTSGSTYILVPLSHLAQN
Test: NanoBRET screen HiBiT-FSHR in HEK293
Assay type: binding
Protocol: Each tracer candidate was screened across the entire library of HiBiT-GPCR constructs using NanoBRET as the detection modality. As depicted in Figure 4A, the specificity of interactions was evaluated through decrease in BRET due to competitive displacement of a bound tracer by excess parental compound. Each tracer was analyzed for binding to each HiBiT-GPCR fusion in the absence and in the presence of competing parental compound. Briefly, HEK293 cells were transfected with HiBiT-GPCR constructs diluted into promoterless DNA to reduce expression and maximize translocation to the cell surface. Each tracer candidate was then screened at concentrations of 1 μM and 0.1 μM across cells expressing these fusions. Cells were treated for 1.5 h with tracer either alone or in the presence of 20 μM competing parental compound (i.e., control). BRET was measured upon addition of purified LgBiT and subsequent complementation with HiBiT genetically fused to a GPCR. The specificity of interactions was assessed through a decrease in BRET signal due to competitive displacement of the bound tracer. To further gauge the robustness of these interactions, the fold response over the control (i.e., BRETtracer/BRETcontrol) was calculated. We chose a 1.5-fold response, which translates to ≥7-fold signal over noise as the minimal threshold required to score an interaction as positive. […]. Below we highlight the screening results obtained for our exemplary fluorescent tracers based on Clozapine, Amitriptyline and AZD1283.
HiBiT-GPCR DNA constructs were diluted in 10 mM Tris pH 8 to a final concentration of 0.01 μg/μL, arrayed in 96-well plates and stored at −20 °C. For transfection, HEK293 cells were suspended in Opti-MEM (without phenol red) supplemented with 2% fetal bovine serum (Seradigm) and 100 units/mL penicillin–streptomycin (Gibco) at a final concentration of 220,000 cells/mL and dispensed into white 96-well plates at 90 μL/well. Subsequent transfections and screens were carried using an Agilent Bravo Automated Liquid Handling Platform. First, the 96-well HiBiT DNA arrays were diluted 25-fold in Opti-MEM (without serum or phenol red) to a final concentration of 0.0004 μg/μL and 20 μL of the diluted DNAs were transferred into new 96-well plates. Next, promoterless carrier DNA (1 μg/μL) was diluted 25-fold (0.04 μg/μL) and then dispensed into the diluted arrays at 20 μL/well. Following brief mixing, Viafect transfection reagent (Promega) diluted 16-fold into Opti-MEM was dispensed into the plates at 40 μL/well. After mixing by pipetting, plates were incubated for 10 min on the pipetting station deck. The DNA-transfection reagent complexes were then added to plates containing cells. To facilitate the screen, 10 μL of DNA-transfection reagent complexes were added in duplicates to the top 4 and bottom 4 rows, resulting in two identical 48-well arrays per plate. Plates with transfected cells were incubated for 18–20 h at 37 °C/5% CO2. A screen of each tracer across the entire library using two different concentrations requires duplicate plates of transfected cells. Depending on the number of tracers being screened, transfections can be scaled up using the same ratios. The next day, for each tracer, four 20× screening solutions in tracer dilution buffer (Promega) were prepared: two duplicates at final concentration of 20 μM and two duplicates at a final concentration of 2 μM. A competing unmodified compound was added to one of each duplicate at a final concentration of 400 μM. The four resulting solutions were diluted 4-fold in Opti-MEM without serum or phenol red to generate 5× solutions (5 µM and 0.5 µM tracer +/− 100 μM competing compound). To screen the library, a BioTek MultiFlo FX liquid dispenser was used to dispense 22.5 µL of tracer solution to the top 4 rows and 22.5 µL tracer + competing compound solution to the 4 bottom rows. Plates were briefly mixed on an orbital shaker and incubated for 1.5 h at room temperature. […]

SMILES | NanoBRET Fold Response (FSHR, tracer 0.1μM) | NanoBRET Fold Response (FSHR, tracer 1μM) | other results
Cc1nc2n(c(=O)c1CCN1CCC(c3noc4cc(F)ccc34)CC1)CCCC2OC(=O)NCCOCCOCCOCCOCCNC(=O)CCc1ccc2n1[B-](F)(F)[N+]1=C(c3ccc[nH]3)C=CC1=C2 (stereo not shown) [Risperidone-2-NB590] | 0.95 | 1.23 | 
CCOC(=O)c1cc(C#N)c(N2CCC(C(=O)NS(=O)(=O)Cc3ccccc3/C=C/C(=O)NCCNC(=O)CCc3ccc4n3[B-](F)(F)[N+]3=C(c5ccc[nH]5)C=CC3=C4)CC2)nc1C [AZD1283-1-NB590] |  |  | NanoBRET Fold Response (FSHR, 0.1μM): 0.99; NanoBRET Fold Response (FSHR, 1μM): 1.03
Cc1cc2c(s1)Nc1ccccc1N=C2N1CCN(CCCNC(=O)CCOCCOCCOCCOCCNC(=O)CCc2ccc3n2[B-](F)(F)[N+]2=C(c4ccc[nH]4)C=CC2=C3)CC1 [Olanzapine-a-2-NB590] | 1.10 | 0.99 | 
COc1ccccc1N1CCN(CCCCN2C(=O)c3ccc(CNC(=O)CCOCCNC(=O)c4ccc(CNC(=O)CCc5ccc6n5[B-](F)(F)[N+]5=C(c7ccc[nH]7)C=CC5=C6)cc4)cc3C2=O)CC1 [NAN-190-3-NB590] | 0.88 | 1.12 | 
CC(C)N(CC[C@H](c1ccccc1)c1cc(CCNC(=O)CCOCCOCCOCCOCCNC(=O)CCc2ccc3n2[B-](F)(F)[N+]2=C(c4ccc[nH]4)C=CC2=C3)ccc1O)C(C)C [Tolterodine-2-NB590] | 0.78 | 1.08 | 
CN(C)CCC=C1c2ccccc2CCc2ccc(C(=O)NCCNC(=O)CCOCCOCCOCCOCCNC(=O)CCc3ccc4n3[B-](F)(F)[N+]3=C(c5ccc[nH]5)C=CC3=C4)cc21 [Amitriptyline-b-2-NB590] |  |  | NanoBRET Fold Response (tracer at 0.1μM, listed as amitriptyline-b-2-NB590): 1.13; NanoBRET Fold Response (tracer at 1μM, listed as amitriptyline-b-2-NB590): 0.96
O=C(CCOCCOCCOCCOCCNC(=O)CCc1ccc2n1[B-](F)(F)[N+]1=C(c3ccc[nH]3)C=CC1=C2)NCCCN1CCN(C2=Nc3ccccc3Oc3ccc(Cl)cc32)CC1 [Loxapine-a-2-NB590] | 0.98 | 1.16 | 
CN(C)CCC=C1c2ccccc2CCc2ccc(C(=O)NCCNC(=O)CCOCCOCCOCCOCCNC(=O)CCc3ccc4n3[B-](F)(F)[N+]3=C(c5ccc[nH]5)C=CC3=C4)cc21 [Amitriptyline-a-2-NB590] |  |  | NanoBRET Fold Response (tracer at 0.1μM): 1.02; NanoBRET Fold Response (tracer at 1μM): 1.06
O=C(CCc1ccc2n1[B-](F)(F)[N+]1=C(c3ccc[nH]3)C=CC1=C2)NCCOCCOCCNC(=O)OCCOCCN1CCN(C2=Nc3ccccc3Sc3ccccc32)CC1 [Quetiapine-a-2-NB590] | 0.89 | 1.07 | 
COc1ccccc1N1CCN(CCCCN2C(=O)c3ccc(CNC(=O)CCOCCOCCOCCOCCNC(=O)CCc4ccc5n4[B-](F)(F)[N+]4=C(c6ccc[nH]6)C=CC4=C5)cc3C2=O)CC1 [NAN-190-2-NB590] | 0.97 | 0.97 | 
CN1CCN(C2=Nc3cc(Cl)ccc3N(CC(=O)NCCOCCOCCOCCOCCNC(=O)CCc3ccc4n3[B-](F)(F)[N+]3=C(c5ccc[nH]5)C=CC3=C4)c3ccccc32)CC1 [Clozapine-c-2-NB590] |  |  | NanoBRET Fold Response (FSHR, 0.1μM tracer): 1.02; NanoBRET Fold Response (FSHR, 1μM tracer): 1.05
COc1ccc2[nH]c(-c3ccc(CNC(=O)CCOCCOCCOCCOCCNC(=O)CCc4ccc5n4[B-](F)(F)[N+]4=C(c6ccc[nH]6)C=CC4=C5)cc3)c(CCNC(C)=O)c2n1 [AzomelatoninICO9-2-NB590] |  |  | NanoBRET Fold Response (0.1μM tracer): 1.32; NanoBRET Fold Response (1μM tracer): 1.02
O=C(CCOCCOCCOCCOCCNC(=O)CCc1ccc2n1[B-](F)(F)[N+]1=C(c3ccc[nH]3)C=CC1=C2)NCCCN1CCN(C2=Nc3cc(Cl)ccc3Nc3ccccc32)CC1 [Clozapine-a-2-NB590] |  |  | NanoBRET Fold Response (FSHR, 0.1μM tracer): 0.99; NanoBRET Fold Response (FSHR, 1μM tracer): 1.32
CCCn1c(=O)c2[nH]c(-c3ccc(OCC(=O)NCCNC(=O)CCOCCNC(=O)c4ccc(CNC(=O)CCc5ccc6n5[B-](F)(F)[N+]5=C(c7ccc[nH]7)C=CC5=C6)cc4)cc3)nc2n(CCC)c1=O [XAC-3-NB590] | 1.18 | 1.04 | 
O=C(CCc1ccc2n1[B-](F)(F)[N+]1=C(c3ccc[nH]3)C=CC1=C2)NCc1ccc(C(=O)NCCOCCOCCNCC(O)COc2cccc3ccccc23)cc1 (stereo not shown) [Propranolol-3-NB590] |  |  | NanoBRET Fold Response (FSHR, 0.1μM): 0.98; NanoBRET Fold Response (FSHR, 1μM): 1.04
O=C(CCc1ccc2n1[B-](F)(F)[N+]1=C(c3ccc[nH]3)C=CC1=C2)NCc1ccc(C(=O)NCCOCCC(=O)N[C@@H]2CC[C@@]3(O)[C@H]4Cc5ccc(O)c6c5[C@@]3(CCN4CC3CC3)[C@H]2O6)cc1 [Naltrexone-3-NB590] | 0.98 | 1.07 | 
N#CN=C(NCCCOc1cccc(CN2CCCCC2)c1)NCCNC(=O)CCOCCOCCOCCOCCNC(=O)CCc1ccc2n1[B-](F)(F)[N+]1=C(c3ccc[nH]3)C=CC1=C2 [Aminopotentidine-2-NB590] | 0.99 | 1.06 | 
COc1ccc2c(n1)c(CCNC(C)=O)cn2CCNC(=O)CCc1ccc2n1[B-](F)(F)[N+]1=C(c3ccc[nH]3)C=CC1=C2 [Azamelatonin-1-NB590] |  |  | NanoBRET Fold Response (0.1μM tracer): 1.08; NanoBRET Fold Response (1μM tracer): 1.08
CC(C)N(CC[C@H](c1ccccc1)c1cc(CCNC(=O)c2ccc(CNC(=O)CCc3ccc4n3[B-](F)(F)[N+]3=C(c5ccc[nH]5)C=CC3=C4)cc2)ccc1O)C(C)C [Tolterodine-BZ-NB590] | 1.08 | 1.09 | 
CN1CCN(C2=Nc3cc(Cl)ccc3Nc3ccc(CNC(=O)CCOCCOCCOCCOCCNC(=O)CCc4ccc5n4[B-](F)(F)[N+]4=C(c6ccc[nH]6)C=CC4=C5)cc32)CC1 [Clozapine-b-2-NB590] |  |  | NanoBRET Fold Response (FSHR, 0.1μM tracer): 1.01; NanoBRET Fold Response (FSHR, 1μM tracer): 1.05

Source: publication PMC8151276, “An Integrated Approach toward NanoBRET Tracers for Analysis of GPCR Ligand Engagement” (Molecules, 2021)
